Like-named read-outs stand apart in the source and are kept apart here. Where no end group is shown, it is not given here.
Experiments:
[1] = test system: AlexaFluor 488-plasma fibronectin (A488-FN); assay: Microtiter exogenous plasma fibronectin matrix assembly assay (AH1F fibroblasts); format: cell-based, human; settings: for inhibition of fibronectin fibrillogenesis: concentrations up to 20 μM
Experimental: Microtiter fibronectin matrix assembly assays: Exogenous plasma fibronectin matrix assembly assay: Binding and incorporation of AlexaFluor® 488-plasma fibronectin (A488-FN) to fibroblast monolayers (human foreskin fibroblasts, AH1F cells was carried out using methods known in the art. Briefly, fibroblasts (60000 per well) were allowed to adhere and spread for 2 hours in microtiter plates in 2% fetal calf serum (FCS)-containing DMEM. Peptides or modulators to be tested were added followed by 28 nM A488-FN. Cell monolayers with or without peptides and A488FN were incubated overnight at 37° C. with 5% CO2. Cell monolayers in microwells were washed with PBS or HBSS containing Ca^2+, Mg^2+. Fluorescence in 96-well plates was read using a microplate reader using bottom-readout capabilities at 485 nm excitation and 525 nm emission with 20 nm bandwidths. To estimate cell viability per well after the washes and measurement of fluorescence, an equal volume of luminescence reagent (Cell Titer-Glo®) was added followed by quantification of luminescence. Fluorescence of wells to which A488FN had not been added, i.e. intrinsic fluorescence of the cell monolayer was subtracted from fluorescence values of wells containing ligand. Data is presented respectively for fibronectin fibrillogenesis or cell viability as percent of fluorescence or luminescence values for wells with no peptides. Microplate microscopy was used to ascertain that fluorescence measurements correspond to fibrillary fibronectin.
To determine whether PEG-FUD retained its ability to inhibit fibronectin fibrillogenesis, PEG-FUD and FUD were compared in cell-based fibronectin matrix assembly assays. The ability of PEG-FUD to inhibit the incorporation of exogenous fibronectin derived from plasma and also of fibronectin endogenously produced by the cultured cells was measured, since fibrosis is likely to contain fibronectin from both sources. Shown in FIG. 12 is the level of fibrils formed from exogenously added A488-FN fibrils in the presence of increasing amounts FUD or PEG-FUD. FIGS. 13 and 14 show endogenous EDA+-fibronectin fibrillogenesis in human fibroblast and human proximal tubular epithelial cells, respectively. In all fluorescence panels, it is evident that PEG-FUD is as efficient as FUD at inhibiting fibronectin assembly dose-dependently with an IC50 of approximately 30 nM. As previously reported, cell viability is negligibly affected by FUD, and PEG-FUD behaves almost identically. There was an approximately 20% decrease in fibroblast viability at the highest concentration of FUD tested (500 nM) with PEG-FUD retaining fibroblast viability almost at 100%. […] Human proximal tubular epithelial cell viability was retained at approximately 100% with treatment by both FUD and PEG-FUD.
Having established the suitability of PEG-FUD as inhibitor of FN fibrillogenesis, a mutated form of FUD, mFUD, was tested as a control peptide. mFUD was PEGylated as described above and the conjugate tested in the exogenous A488-FN binding assay as described for FIG. 1A. […] A maximum concentration of 20 μM was tested because it approximates the concentration used in vivo, both in this study and in the liver fibrosis study.

[2] = biological target: human plasma FN; assay: Isothermal Titration calorimetry (ITC) of peptide binding to fibronectin; settings: pH 7.4 PBS, 25° C., triplicate
Experimental: Isothermal Titration calorimetry (ITC): ITC experiments were performed using a VP-ITC microcalorimeter (MicroCal, LLC) with a cell volume of 2.2 mL. In a typical experiment, the cell was filled with 1.4 mL of 2 μM human plasma FN and the syringe was filled with 1 mL of 28 μM FUD or PEG-FUD peptides. The temperature was set to 25° C. The titration experiment was performed in 39 injections (1×1, 4×4, and 34×8 μL) delivered in 120 sec intervals. Prior to injection, both FN and the peptides were dialyzed in separate dialysis bags overnight into the same PBS buffer (pH 7.4) solution. Routine analysis involved discarding of the first data point and subtraction of peptide into PBS buffer control run. Data were fit using one set of sites model Lavenberg-Marquardt nonlinear regression in Origin 7.0.
The binding of 10 kDa, 20 kDa, and 40 kDa PEG-FUD to FN was studied using Isothermal Titration calorimetry (ITC). This technique was used to determine the thermodynamic parameters as well as the binding constant (Kd) of the interaction. The peptide was injected into a human plasma FN solution in PBS at pH 7.4 and 25° C. in triplicate runs. […] A Kd of 6 (±3) nM was detected for FUD:FN. […] Similar entropy change of −65 (±3) cal/mol, −74 (±7) cal/mol, −66 (±7) cal/mol, and −73 (±2) and enthalpy change of −31 (±1) kcal/mol, −34 (±2) kcal/mol, −30 (±1) kcal/mol, and −32.5 (±0.5) kcal/mol were detected for the interaction of FUD and 10 kDa, 20 kDa, and 40 kDa PEG-FUD with FN, respectively. […] This observation is contrary to the expectation of PEG attachment diminishing a drug's affinity for its binding partner and presents an unexpected but desired feature of the PEG-FUD peptide.

[3] = test system: UUO kidneys; assay: Unilateral Ureteral Obstruction (UUO) model of kidney fibrosis; format: in vivo, mouse; settings: compared to saline-treated UUOs
[4] = exogenous A488-FN, doses up to 20 μM, read-out: IC50 of fibrillogenesis inhibition
[5] = exogenous A488-plasma fibronectin, human fibroblasts, doses up to 500 nM, read-out: IC50 of fibronectin assembly inhibition

Sequence of AlexaFluor 488-plasma fibronectin (A488-FN) (P02751 32-608 limits assumed): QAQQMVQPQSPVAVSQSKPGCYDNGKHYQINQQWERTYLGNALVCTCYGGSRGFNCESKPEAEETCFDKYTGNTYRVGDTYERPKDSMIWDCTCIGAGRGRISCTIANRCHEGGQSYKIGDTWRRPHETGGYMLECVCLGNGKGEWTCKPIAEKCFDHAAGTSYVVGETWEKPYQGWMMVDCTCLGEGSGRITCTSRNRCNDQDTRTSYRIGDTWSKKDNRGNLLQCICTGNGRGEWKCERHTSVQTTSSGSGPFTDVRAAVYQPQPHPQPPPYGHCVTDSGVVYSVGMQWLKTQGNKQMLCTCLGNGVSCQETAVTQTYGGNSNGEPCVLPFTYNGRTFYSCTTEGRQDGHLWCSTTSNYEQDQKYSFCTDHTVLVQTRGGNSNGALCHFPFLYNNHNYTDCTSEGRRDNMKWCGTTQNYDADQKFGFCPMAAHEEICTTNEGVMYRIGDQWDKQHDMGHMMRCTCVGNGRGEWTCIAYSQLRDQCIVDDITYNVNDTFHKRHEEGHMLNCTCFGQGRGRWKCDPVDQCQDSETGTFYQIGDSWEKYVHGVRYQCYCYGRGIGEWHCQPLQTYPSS
Sequence of human plasma FN (P02751 32-608 limits assumed): as above

Substance	inhibition of assembly of plasma fibronectin by fibroblasts ([1]; doses up to 500 nM)	inhibition of fibronectin fibrillogenesis ([1]; exogenous A488-FN)	IC50 [1, 4]	IC50 [1, 5]	Kd [2]	decrease of fibronectin in ECM fractions (immunoblot, normalized to H3) [3]
FUD: 49 amino acid FUD peptide, SEQ ID NO: 1, recombinantly expressed, His-tag removed; inhibitor of fibronectin fibrillogenesis (KDQSPLAGESGETEYITEVYGNQQNPVDIDKKLPNETGFSGNMVETEDT; human) [reference compound]	70%	60%	25 to 30 nM	~30 nM	6 nM	approximately 60%
PEG-FUD: PEGylated FUD prepared as in Example 1, PEG size not stated; approximately 27 kDa by mass spectrometry, likely the 20 kDa conjugate (KDQSPLAGESGETEYITEVYGNQQNPVDIDKKLPNETGFSGNMVETEDT; not fully specified (N-terminus); also: PEG size not given here)	70%	60%	25 to 30 nM	~30 nM	~10 nM	approximately 80%

From patent US10828372B2, “Compositions and methods for the inhibition of fibrosis” (WISCONSIN ALUMNI RESEARCH FOUNDATION, priority 2017, dated 2020)
